From patent US20240180930A1, “CARBONIC ANHYDRASE 1 (CA1) INHIBITORS FOR THE TREATMENT OR PREVENTION OF MYELOPROLIFERATIVE DISORDERS AND OTHER HEMATOPOIETIC MALIGNANCIES, AND AS BIOMARKER OF MYELOPROLIFERATIVE DISORDERS AND OTHER HEMATOPOIETIC MALIGNANCIES” (COMMISSARIAT A L'ENERGIE ATOMIQUE ET AUX ENERGIES …, priority 2021, published 2024)

Experiments:
[1] = tested on: mice transplanted with JAK2^V617F BM cells; assay: Single irradiated-leg mouse model of Polycythemia Vera, pharmacologic treatment; type: in vivo
Description: Mice. The conditional flexed Jak2^V617F KI mice (Hasan et al.; Blood 122, 1464-1477; 2013) were crossed with VavCre transgenic (TG) mice (Croker et al., SOCS3 Is a Critical Physiological Negative Regulator of G-CSF Signaling and Emergency Granulopoiesis. Immunity 20, 153-165 (2004)) to express the mutant Jak2. To easily evaluate allele burden in kinetic experiments, Jak2^V617F KI/VavCre mice were also crossed with UbiGFP TG mice in Gustave Roussy' animal facilities. For one-leg transplantation, F1 crossed B6.SJL/BoyJ (CD45.1)×C57BL/6J (CD45.2) mice were used as recipient mice. All mice were housed in a specific pathogen-free section at an animal facility of CEA/DRF/IBFJ/iRCM according to the institutional guidelines and French Ministry of Agriculture's regulations.
One leg irradiation and transplantation. Recipient mice were anesthetized with ketamine-xylazine and their leg was fixed on a tray with only the leg left towards the opposite side to their body. The tray was put in the radiation field of a GSRD1 radiation equipment. The mouse body was shielded from irradiation with lead plates and the leg was irradiated at 2×5 Gy with an interval of 17 h. Bone marrow (BM) cells (1×10^7) were intravenously transplanted into the irradiated mice 7 hours after the second irradiation. For barcode and shRNA experiments, 10,000 transduced Lin^−Scal^+cKit^+ (LSK) hematopoietic cells were intrafemorally transplanted into irradiated leg under Isoflurane anesthetic.
Blood analysis. Blood was collected and analyzed through a hemocytometer (CD3700, ABBOTT). The rest of blood was subjected to hemolysis by using an ammonium chloride solution ([…]). The hemolyzed blood were stained with antibodies against CD45.1 (A20) and CD45.2 (104) and analyzed through flow cytometry to examine blood chimerism.
BM cells (femur and tibia) of irradiated leg and of non-irradiated leg were harvested by flushing with 1 mL of PBS. After centrifugation, BM supernatants were collected and kept at -80° C. with anti-protease (ROCHE) for chemokine analyses. BM cells were suspended in PBS and splenocytes were also collected in PBS by crushing spleen on a 70 μm filter. Before hemolysis, cells were stained with Ter119 (TER-119) and CD71 (C2) antibodies for the examination of erythroid compartments. The rest of cells were hemolyzed and stained for analyses of granulocytes, hematopoictic progenitor cells (HPCs) and hematopoietic stem cells (HSCs) by using antibodies against CD45.1 (A20), CD45.2 (104), CD11b (M1/70), Gr-1 (RB6-8C5), c-Kit (2B6), Sca-1 (D7 or E13-161.7), CD34 (RAM34 or MEC14.7), CD16/32 (93), CD48 (HM48-1) and CD150 (TC15-12F12.2). […] For cell cycle analyses, stained HSPCs were permeabilized with Cytofix/Cytoperm buffer following manufacturer's instructions (BD Biosciences) and labelled with anti-Ki67 antibody (SolA15) and Hoechst 33342. All antibodies were purchased from BioLegend, eBioscience, or BD Biosciences. Flow cytometry analyses were performed through FACS Canto II (BD Biosciences) and LSR II (BD Biosciences), and cell sorting was conducted by using FACS Aria II (BD Biosciences). Analyses were performed with the FlowJo software (TRISTAR) and illustrated with the Prism7 software (GraphPad).
Pharmacologic treatment. Furosemide was purchased from Sigma (MKCF8657), dissolved in DMSO for stock solution (50 mg/mL) and diluted in PBS solution prior to use. […] Spironolactone (SIGMA) was prepared in water bottles at 250 mg/Kg to treat recipient mice as described (Rafael-Fortney et al., Early treatment with lisinopril and spironolactone preserves cardiac and skeletal muscle in duchenne muscular dystrophy mice »; Circulation, 2011; 124:582-8). Acetozolamide was purchased from SIGMA (A6011), dissolved in PBS and solubilized with NaOH (35%) until complete dissolution of the product.

[2] = tested on: ICN1 leukemic cells; assay: ICN1 leukemia in vivo survival; parameters: species or system mouse
Procedure: ICN1 leukemia. Non-conditioned C57BL/6J (CD45.2) recipient mice were intravenously transplanted with 1.5×10^4 ICN1 leukemic cells in 100 uL of PBS. Seven days after transplantation, when blast cells are detected in the peripheral blood, recipient mice were daily treated or not by intravenous injection of furosemide at 20 mg/Kg.

[3] = tested on: CD34^+ cells from PV patients; assay: BFU-E from CD34+ cells of PV patients treated with furosemide; type: cell-based, human; details: 5 and 20 μg/mL of furosemide, 100% = absence of furosemide
Procedure: FIG. 9: CA1 protein expression and furosemide treatment of CD34^+ cells from PV patients. (A) CA1 protein expression in human CD34^+ cells from control and JAK2^V617F PV patients (left) (n=4) and (B) CA1 expression level normalized against GAPDH expression level (right). (C) Effects of 5 and 20 μg/mL of furosemide on the percentages of BFU-E from CD34^+ cells of PV patients (n=4). 100% is used as percentage of BFU-E in the absence of furosemide (N.T.). N) Relative percentage of JAK2^V617F Variant Allele Frequency (VAF) in the BFU-E after treatment with 5 and 20 ug/mL of furosemide. 100% is used as percentage of VAF in the BFU-E in the absence of furosemide (N.T.). Data are mean +/−s.e.m. Significance was assessed using unpaired 2-tailed t test and two way ANOVA followed by post-hoc analysis (*<0.05, **<0.01, ***<0.001, ****<0.0001).
Whole-transcriptome RNA-seq on CD34+ cell from Patients. The patients were selected for their high JAK2^V617F variant allele frequency (from 60 to 100% VAF). […] The RNA integrity (RNA Integrity Score>7.0) was checked on the Agilent 2100 Bioanalyzer (Agilent) and quantity was determined using Qubit (Invitrogen). […]

| SMILES | therapeutic effect (blood chimerism, spleen weight) ([1]; furosemide 5 mg/Kg daily, starting two weeks after transplantation, compared with 20 mg/Kg (FIG. 8)) | survival rate ([1]; furosemide 20 mg/Kg daily intravenous, starting 2 weeks after transplantation (FIG. 4i)) | JAK2^V617F cell burden in blood ([1]; furosemide 20 mg/Kg daily intravenous, starting 2 weeks after transplantation of JAK2^V617F BM cells (FIG. 4g)) | spleen weight ([1]; furosemide 20 mg/Kg daily intravenous, starting 2 weeks after transplantation, 8 weeks later (FIG. 4h)) | PV blood parameters ([1]; furosemide 20 mg/Kg daily intravenous, starting 2 weeks after transplantation, hematocrit and red blood cells count) | JAK2^V617F LT-HSC contribution to the LT-HSC compartment ([1]; furosemide after PV establishment, before treatment (10 weeks) vs end of treatment (31 weeks) (FIG. 4m)) | survival ([1]; furosemide daily after PV establishment, starting 10 weeks after transplantation) | blood JAK2^V617F cell burden ([1]; furosemide daily after PV establishment, starting 10 weeks after transplantation (FIG. 4j)) | hematocrit ([1]; furosemide daily after PV establishment, starting 10 weeks after transplantation (FIG. 4k)) | spleen weight ([1]; furosemide daily after PV establishment, starting 10 weeks after transplantation (FIG. 4l)) | survival rate ([2]; furosemide 20 mg/Kg daily intravenous, starting 1 week after transplantation of 1.5×10^4 ICN1 leukemic cells (FIG. 7)) | in vivo leukemia progression ([2]; furosemide daily, starting 1 week after transplantation (FIG. 7)) | JAK2^V617F variant allele frequency in the BFU-E [3] | percentages of BFU-E ([3]; n=4) | PV associated symptoms ([1]; spironolactone 250 mg/Kg in water bottles, starting 2 weeks after transplantation) | survival of mice with PV ([1]; spironolactone 250 mg/Kg in water bottles, starting 2 weeks after transplantation (FIG. 5d)) |
| --- | --- | --- | --- | --- | --- | --- | --- | --- | --- | --- | --- | --- | --- | --- | --- | --- |
| NS(=O)(=O)c1cc(C(=O)O)c(NCc2ccco2)cc1Cl [Furosemide, 4-chloro-2-(furan-2-ylmethylamino)-5-sulfamoylbenzoic acid] | therapeutic effect similar to the one obtained with 20 mg/Kg | improved | decreased | decreased | decreased | significant decrease | survival of the treated mice | rapid, stable and Furosemide-dependent decrease | decreased | decreased | improved survival rate is also reproduced | Slowing | decreased | decreased |  |  |
| CC(=O)S[C@@H]1CC2=CC(=O)CC[C@]2(C)[C@H]2CC[C@@]3(C)[C@@H](CC[C@@]34CCC(=O)O4)[C@H]12 [Spironolactone] |  |  |  |  |  |  |  |  |  |  |  |  |  |  | no effect | no effect |
